Assay results taken from US10710980B2, “Aminopyridine derivatives and their use as selective ALK-2 inhibitors” (priority 2016, dated 2020).
Converted amounts (≈) assume the structure as drawn.

What was measured:
ALK3 (aa198-525) = ALK3 (aa198-525) (Homo sapiens (Human), UniProt P36894); assay: ADPGlo biochemical autophosphorylation assay, ALK3; conditions: 15 μm ATP, 60 min at 32° C.
[1] = target: T1, wild-type ALK2 (aa172-499) (Homo sapiens (Human), UniProt Q04771); assay: Caliper biochemical peptide phosphorylation assay, ALK2; conditions: 15 μm ATP, 60 min at 30° C.; read-out: ALK2 EPK (IC50)
T1 sequence (Q04771 172-499): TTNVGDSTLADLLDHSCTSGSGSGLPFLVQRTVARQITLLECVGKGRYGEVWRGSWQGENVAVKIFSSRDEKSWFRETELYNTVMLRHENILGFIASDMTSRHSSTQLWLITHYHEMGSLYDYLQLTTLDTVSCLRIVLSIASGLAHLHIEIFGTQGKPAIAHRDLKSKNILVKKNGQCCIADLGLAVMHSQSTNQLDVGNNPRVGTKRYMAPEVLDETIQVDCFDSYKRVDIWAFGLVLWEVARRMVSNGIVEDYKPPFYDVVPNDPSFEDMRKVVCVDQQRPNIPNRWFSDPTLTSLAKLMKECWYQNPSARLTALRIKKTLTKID

ALK1 (aa166-493) = ALK1 (aa166-493) (Homo sapiens (Human), UniProt P37023); assay: Caliper biochemical peptide phosphorylation assay, ALK1; conditions: 15 μm ATP, 60 min at 30° C.; read-out: ALK1 EPK (IC50)
Chain of ALK1 (aa166-493) (P37023 166-493): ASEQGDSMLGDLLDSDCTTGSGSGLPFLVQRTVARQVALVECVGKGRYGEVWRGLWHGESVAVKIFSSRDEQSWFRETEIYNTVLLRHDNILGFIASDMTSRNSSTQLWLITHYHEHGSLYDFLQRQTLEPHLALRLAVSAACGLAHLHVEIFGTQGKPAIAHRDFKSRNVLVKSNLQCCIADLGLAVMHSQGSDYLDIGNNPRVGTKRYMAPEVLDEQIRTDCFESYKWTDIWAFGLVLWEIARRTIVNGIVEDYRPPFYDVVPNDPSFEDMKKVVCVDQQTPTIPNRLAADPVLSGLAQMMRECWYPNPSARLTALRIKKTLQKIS

ALK6 (aa168-495) = ALK6 (aa168-495) (Homo sapiens (Human), UniProt O00238); assay: Caliper biochemical peptide phosphorylation assay, ALK6; conditions: 15 μm ATP, 60 min at 30° C.; read-out: ALK6 EPK (IC50)
Chain of ALK6 (aa168-495) (O00238 168-495): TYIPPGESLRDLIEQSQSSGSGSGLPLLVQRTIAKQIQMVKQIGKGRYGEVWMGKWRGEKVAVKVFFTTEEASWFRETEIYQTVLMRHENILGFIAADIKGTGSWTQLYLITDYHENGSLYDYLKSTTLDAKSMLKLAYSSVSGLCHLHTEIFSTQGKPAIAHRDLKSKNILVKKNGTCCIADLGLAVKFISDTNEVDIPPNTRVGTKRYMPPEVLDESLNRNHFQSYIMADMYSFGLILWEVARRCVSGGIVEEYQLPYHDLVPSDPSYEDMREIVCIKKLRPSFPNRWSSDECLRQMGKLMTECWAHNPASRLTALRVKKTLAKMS

[2] = target: T1, wild-type ALK2 (aa172-499); assay: ADPGlo biochemical autophosphorylation assay, ALK2; conditions: 15 μm ATP, 60 min at 32° C.
[3] = test system: BMP response element (BRE) luciferase reporter in HuH7 cells, BMP6 stimulated; assay: BMP signaling reporter gene assay; type: cell-based; conditions: Homo sapiens, Huh-7; HuH7 BRE-luciferase, BMP6 100 ng/ml, 5 hours; read-out: MSD BMP RGA IC50
ALK5 (aa162-503) = ALK5 (aa162-503) (Homo sapiens (Human), UniProt P36897); assay: Caliper biochemical peptide phosphorylation assay, ALK5; conditions: 15 μm ATP, 60 min at 30° C.; read-out: ALK5 EPK (IC50)
Chain of ALK5 (aa162-503) (P36897 162-503): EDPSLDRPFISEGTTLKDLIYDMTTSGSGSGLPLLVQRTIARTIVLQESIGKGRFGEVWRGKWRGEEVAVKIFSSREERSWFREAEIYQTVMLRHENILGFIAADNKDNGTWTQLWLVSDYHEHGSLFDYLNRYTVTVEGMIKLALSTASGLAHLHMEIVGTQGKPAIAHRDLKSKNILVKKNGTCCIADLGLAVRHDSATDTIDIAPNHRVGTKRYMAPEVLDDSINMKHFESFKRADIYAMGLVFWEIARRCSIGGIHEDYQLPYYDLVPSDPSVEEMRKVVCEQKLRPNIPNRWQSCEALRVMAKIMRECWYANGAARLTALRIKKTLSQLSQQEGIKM

[4] = Solubility (at 25° C., 24 h equilibration); type: physicochemical; conditions: target concentration 2 mg/mL; for solubility at 24 h: 25 °C, thermodynamic from solid; for solubility: 25° C., 24 h

Chain of ALK3 (aa198-525) (P36894 198-525): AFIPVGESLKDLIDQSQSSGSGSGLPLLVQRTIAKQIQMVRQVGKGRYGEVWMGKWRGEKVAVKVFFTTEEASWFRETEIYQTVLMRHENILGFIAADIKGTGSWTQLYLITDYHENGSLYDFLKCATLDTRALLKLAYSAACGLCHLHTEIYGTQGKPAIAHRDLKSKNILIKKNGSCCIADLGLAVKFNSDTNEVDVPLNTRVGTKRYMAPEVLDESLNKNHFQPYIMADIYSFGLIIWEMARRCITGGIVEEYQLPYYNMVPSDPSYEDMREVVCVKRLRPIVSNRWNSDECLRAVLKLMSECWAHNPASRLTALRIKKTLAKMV

| SMILES | IC50 (ALK3 (aa198-525)) | IC50 [1] | IC50 (ALK1 (aa166-493)) | IC50 (ALK6 (aa168-495)) | IC50 [2] | IC50 [3] | IC50 (ALK5 (aa162-503)) | solubility at 24 h ([4]; 1N HCl, pH 1, simulated gastric fluid, pH 1.0 1N HCl/1.1, 24 h) | solubility at 24 h ([4]; FeSSIF, pH 5.8, fessif, pH 5.8 FeSSIF/5.9, 24 h) | solubility at 24 h ([4]; HCl buffer, pH 2, simulated gastric fluid, pH 2.0 HCl buffer 2.1, 24 h) | solubility at 24 h ([4]; SGF, pH 2, simulated gastric fluid, pH 2.0 SGF/2.0, 24 h) | solubility ([4]; Water/7.2) | solubility at 24 h ([4]; acetate buffer, pH 4.7, aqueous buffer, pH 4.7 acetate buffer/4.8, 24 h) | solubility ([4]; pH 6.5 FaSSIF/6.5) | solubility ([4]; pH 6.8 phosphate buffer/6.8) | solubility ([4]; pH 9.0 borate buffer/8.6) |
| --- | --- | --- | --- | --- | --- | --- | --- | --- | --- | --- | --- | --- | --- | --- | --- | --- |
| CC(C)(O)C12CC(NC(=O)c3cc(-c4ccc([C@@]56C[C@@H]5CN(C5CCOCC5)C6)cc4)cnc3N)(C1)C2 [Example 83, 2-amino-N-(3-(2-hydroxypropan-2-yl)bicyclo[1.1.1]pentan-1-yl)-5-(4-((1R,5S)-3-(tetrahydro-2H-pyran-4-yl)-3-azabicyclo[3.1.0]hexan-1-yl)phenyl)nicotinamide] | 15.1 µM | 145 nM | 5600 nM | 10 µM | 100 nM | 360 nM | 10 µM | – | – | – | – | – | – | – | – | – |
| Nc1ncc(-c2cccc(C(=O)N3CCOCC3)c2)cc1C(=O)NC1CCCCC1 [Example 84, 2-amino-N-cyclohexyl-5-(3-(morpholine-4-carbonyl)phenyl)nicotinamide] | 21.9 µM | 350 nM | 20200 nM | 20.2 µM | 2400 nM | 9500 nM | 20.2 µM | – | – | – | – | – | – | – | – | – |
| C[C@@H]1CCCN1Cc1ccc(-c2cnc(N)c(C(=O)N[C@H]3CC[C@](C)(O)CC3)c2)cc1Cl [Example 85, 2-amino-5-(3-chloro-4-(((R)-2-methylpyrrolidin-1-yl)methyl)phenyl)-N-((1r,4R)-4-hydroxy-4-methylcyclohexyl)nicotinamide] | 15.1 µM | 170 nM | 9800 nM | 10 µM | 190 nM | 860 nM | 10 µM | – | – | – | – | – | – | – | – | – |
| Cc1cc(CN2CCC[C@H]2C)ccc1-c1cnc(N)c(C(=O)N[C@H]2CC[C@](C)(O)CC2)c1 [Example 87, 2-amino-N-((1r,4R)-4-hydroxy-4-methylcyclohexyl)-5-(2-methyl-4-(((R)-2-methylpyrrolidin-1-yl)methyl)phenyl)nicotinamide] | 15.1 µM | 630 nM | 10000 nM | 10 µM | 880 nM | 3550 nM | 10 µM | – | – | – | – | – | – | – | – | – |
| Nc1ncc(-c2cccc(C(=O)N3CCN(CCO)CC3)c2)cc1C(=O)NC1CCCCC1 [Example 88, 2-amino-N-cyclohexyl-5-(3-(4-(2-hydroxyethyl)piperazine-1-carbonyl)phenyl)nicotinamide] | 22.8 µM | 810 nM | 20200 nM | 20.2 µM | 990 nM | 9300 nM | 20.2 µM | – | – | – | – | – | – | – | – | – |
| Nc1ncc(-c2ccc([C@@]34C[C@@H]3CN(C3CCOCC3)C4)cc2)cc1C(=O)NC12CCC(O)(CC1)CC2 [Free form Modification HA, 2-amino-N-(4-hydroxybicyclo[2.2.2]octan-1-yl)-5-(4-((1R,5S)-3-(tetrahydro-2H-pyran-4-yl)-3-azabicyclo[3.1.0]hexan-1-yl)phenyl)nicotinamide] | – | – | – | – | – | – | – | > 2000 µg/mL | 1690 µg/mL (≈ 3.36 mM) | > 2000 µg/mL | > 2000 µg/mL | 0.07 mg/mL (≈ 0.139 mM) | > 2000 µg/mL | 0.47 mg/mL (≈ 0.935 mM) | 0.34 mg/mL (≈ 0.676 mM) | <LOQ |

Next, values leading:

| IC50 (ALK3 (aa198-525)) | IC50 [1] | IC50 (ALK1 (aa166-493)) | IC50 (ALK6 (aa168-495)) | IC50 [2] | IC50 [3] | IC50 (ALK5 (aa162-503)) | solubility at 24 h ([4]; 1N HCl, pH 1, simulated gastric fluid, pH 1.0 1N HCl/1.1, 24 h) | solubility at 24 h ([4]; FeSSIF, pH 5.8, fessif, pH 5.8 FeSSIF/5.9, 24 h) | solubility at 24 h ([4]; HCl buffer, pH 2, simulated gastric fluid, pH 2.0 HCl buffer 2.1, 24 h) | solubility at 24 h ([4]; SGF, pH 2, simulated gastric fluid, pH 2.0 SGF/2.0, 24 h) | solubility ([4]; Water/7.2) | solubility at 24 h ([4]; acetate buffer, pH 4.7, aqueous buffer, pH 4.7 acetate buffer/4.8, 24 h) | solubility ([4]; pH 6.5 FaSSIF/6.5) | solubility ([4]; pH 6.8 phosphate buffer/6.8) | solubility ([4]; pH 9.0 borate buffer/8.6) | SMILES |
| --- | --- | --- | --- | --- | --- | --- | --- | --- | --- | --- | --- | --- | --- | --- | --- | --- |
| 3.2 µM | 79 nM | 370 nM | 8.4 µM | 34 nM | 2300 nM | 9.4 µM | – | – | – | – | – | – | – | – | – | CC(F)(F)CN1C[C@@H]2C[C@]2(c2ccc(-c3cnc(N)c(C(=O)N[C@H]4CC[C@H](O)CC4)c3)cc2)C1 [Example 76, 2-amino-5-(4-((1S,5R)-3-(2,2-difluoropropyl)-3-azabicyclo[3.1.0]hexan-1-yl)phenyl)-N-((1r,4S)-4-hydroxycyclohexyl)nicotinamide] |
| 3.3 µM | 80 nM | 320 nM | 8.6 µM | 28 nM | 1300 nM | 10 µM | – | – | – | – | – | – | – | – | – | Nc1ncc(-c2ccc([C@@]34C[C@@H]3CN(CC(F)(F)F)C4)cc2)cc1C(=O)N[C@H]1CC[C@H](O)CC1 [Example 77, 2-amino-N-((1r,4R)-4-hydroxycyclohexyl)-5-(4-((1R,5S)-3-(2,2,2-trifluoroethyl)-3-azabicyclo[3.1.0]hexan-1-yl)phenyl)nicotinamide] |
| 8.3 µM | 109 nM | 310 nM | 10 µM | 37 nM | 220 nM | 7.8 µM | – | – | – | – | – | – | – | – | – | [2H][C@]1(O)CC[C@H](NC(=O)c2cc(-c3ccc([C@]45C[C@H]4CN(C(C)C)C5)cc3)cnc2N)CC1 [Example 78, 2-amino-N-((1r,4S)-4-hydroxycyclohexyl-4-d)-5-(4-((1S,5R)-3-isopropyl-3-azabicyclo[3.1.0]hexan-1-yl)phenyl)nicotinamide] |
| 6.5 µM | 87 nM | 890 nM | 10 µM | 86 nM | 2700 nM | 4.1 µM | – | – | – | – | – | – | – | – | – | CN1CCN(C(=O)c2ccc(-c3cnc(N)c(C(=O)N[C@H]4CC[C@@H](O)CC4)c3)cc2)CC1 [Example 79, 2-amino-N-((1s,4s)-4-hydroxycyclohexyl)-5-(4-(4-methylpiperazine-1-carbonyl)phenyl)nicotinamide] |
| 1.8 µM | 87 nM | 680 nM | 4.6 µM | 58 nM | 58 nM | 6.6 µM | – | – | – | – | – | – | – | – | – | Nc1ncc(-c2ccc([C@@]34C[C@@H]3CN(C3CCC(F)(F)CC3)C4)cc2)cc1C(=O)NC12CCC(O)(CC1)CC2 [Example 80, 2-amino-5-(4-((1R,5S)-3-(4,4-difluorocyclohexyl)-3-azabicyclo[3.1.0]hexan-1-yl)phenyl)-N-(4-hydroxybicyclo[2.2.2]octan-1-yl)nicotinamide] |
| 15.1 µM | 110 nM | 3000 nM | 10 µM | 150 nM | 1250 nM | 10 µM | – | – | – | – | – | – | – | – | – | C[C@@H]1CCCN1Cc1ccc(-c2cnc(N)c(C(=O)N[C@H]3CC[C@](C)(O)CC3)c2)c(Cl)c1 [Example 81, 2-amino-5-(2-chloro-4-(((R)-2-methylpyrrolidin-1-yl)methyl)phenyl)-N-((1r,4R)-4-hydroxy-4-methylcyclohexyl)nicotinamide] |
| 9.5 µM | 117 nM | 1600 nM | 10 µM | 82 nM | 56 nM | 10 µM | – | – | – | – | – | – | – | – | – | C[C@]1(O)CC[C@H](NC(=O)c2cc(-c3ccc([C@@]45C[C@@H]4CN(C4CCC(F)(F)CC4)C5)cc3)cnc2N)CC1 [Example 82, 2-amino-5-(4-((1R,5S)-3-(4,4-difluorocyclohexyl)-3-azabicyclo[3.1.0]hexan-1-yl)phenyl)-N-((1r,4R)-4-hydroxy-4-methylcyclohexyl)nicotinamide] |
| 8.2 µM | 205 nM | 2300 nM | 10 µM | 110 nM | 1080 nM | 10 µM | – | – | – | – | – | – | – | – | – | C[C@H](c1ccc(-c2cnc(N)c(C(=O)N[C@]3(C)CC[C@@H](O)CC3)c2)cc1)N1CC2(COC2)C1 [Example 86, 5-(4-((R)-1-(2-oxa-6-azaspiro[3.3]heptan-6-yl)ethyl)phenyl)-2-amino-N-((1r,4R)-4-hydroxy-1-methylcyclohexyl)nicotinamide] |
